Where two headings read alike, the source gives them in different places.
Columns and labels:
[1] = target: T1, mSUCNR1 (Mus musculus, UniProt Q99MT6); test: IP3 turnover assay in mSUCNR1 transfected HEK-293 cells; format: cell-based; details: for mSUCNR1 efficacy, %: efficacy relative to succinate (100%), HEK cells (N = 3)
T1 construct: FLAG (own knowledge: pCMV-Tag 2B is an N-terminal FLAG vector); host or cells: HEK-293, transient transfection with Lipofectamine-2000
T1 sequence (Q99MT6 1-317): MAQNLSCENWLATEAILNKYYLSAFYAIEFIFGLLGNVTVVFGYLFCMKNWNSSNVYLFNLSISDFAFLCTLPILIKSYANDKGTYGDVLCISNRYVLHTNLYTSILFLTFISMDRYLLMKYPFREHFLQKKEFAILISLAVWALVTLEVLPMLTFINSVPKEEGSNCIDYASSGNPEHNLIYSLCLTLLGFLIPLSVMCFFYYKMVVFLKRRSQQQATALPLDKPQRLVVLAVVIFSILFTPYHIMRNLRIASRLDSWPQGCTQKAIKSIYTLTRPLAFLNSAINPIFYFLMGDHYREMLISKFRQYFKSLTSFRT
Procedure: (§1) Receptor constructs for mSUCNR1 and hSUCNR1 were bought from Origene and cloned into the eukaryotic expression vector pCMV-Tag(2B) (Stratagene).
(§2) Transient transfection of the HEK-293 cells was done with Lipofectamine-2000 according to manufacturer’s protocol. Cells were supplemented with fresh medium after 5 h.
(§3) 96-well plates were coated with poly-D-lysine and HEK-293 cells were plated (35.000 cells/well). Cells were transfected for 5 h the following day and subsequently incubated O/N with 0.5 μCi/mL myo[3H]inositol (Perkin Elmer) in 100 μL growth medium. On day 3 cells were washed with 200 µL HBSS/well (Gibco, Life Technologies) followed by a pre-incubation (30 min, 37 °C) with 100 µL HBSS supplemented with 10 mM LiCl. Cells were stimulated with ligand (120 min, 37 °C) and lysed with 50 µL 10 mM formic acid (30 min on ice). In a white 96 well plate 20 µL cell extracts and 80 µL 1:8 diluted YSi scintillation beads (Perkin Elmer) were mixed. The plate was spun down, and a Packard Top Count NXT counter recorded light emission (scintillation) after an 8 h delay.

[2] = physchem; format: physicochemical; details: pH 7.4, aqueous buffer, kinetic from dmso stock, 10 mM PBS7.4, 25 °C
Procedure: Duplicates of a 200 μM solution of the dicarboxylic acids were prepared from 0.01 M PBS7.4 and a 10 mM stock solution in DMSO. The samples were incubated in an Eppendorf® Thermomixer (25 °C, 800 rpm) for 24 h. Afterwards, the samples were centrifuged for 5 min at 11,000 rpm and the supernatant was filtered (0.45 μm PTFE membrane) before analysis by HPLC. The solubility was calculated based on a concentration-absorption curve.

[3] = format: physicochemical; details: after 70 hours in 10 mM PBS7.4, 37 °C
Procedure: Triplicates of a 50 μM solution of the test compounds were prepared from 0.01 M PBS7.4 and a 10 mM stock solution in DMSO. The samples were incubated in an Eppendorf® Thermomixer (37 °C, 650 rpm). The samples were briefly vortexed and 50 μL aliquots were withdrawn at the time points 0 h, 24 h, 48 h etc. and analysed immediately on UPLC. The chemical stability in PBS7.4 was determined at every time point in percentage relative to the 0 h time point.

[4] = format: in vitro ADME; details: 2 hours, 37 °C
Procedure: FaSSIF, FeSSGF and FaSSGF were prepared in accordance to the manufacturers procedure, Biorelevant.com. Triplicates of a 50 μM solution of the test compounds were prepared from a 10 mM stock solution in DMSO diluted with FaSSGF/FaSSIF/FeSSIF. The samples were incubated in an Eppendorf® Thermomixer (37 °C, 650 rpm). Samples were withdrawn at 0 min and 120 min, centrifuged (10 min at 10,000 rpm) and the supernatant analysed by HPLC/UPLC. The stability was calculated based on peak area of a 0 point sample.

[5] = format: in vitro ADME, mouse; details: 1 hour, 1 μM, 0.5 mg/mL microsomes
Procedure: Microsomal stability was studied in mouse liver microsomes (0.5 mg/mL) at a final test compound concentration of 1 μM and performed in triplicates in accordance to the published protocol. In short: Prewarmed (37 °C) 0.1 M PBS7.4, 10 mM NADPH in PBS7.4 and test compound (1 mM in DMSO) were added to an Eppendorf® Tube. The samples were incubated for 5 min at 37 °C before addition of newly thawned microsomes. The samples were mixed by gentle vortexing and incubated for 1 h at 37 °C, 300 rpm in an Eppendorf® Thermomixer. Samples were quenched by addition of ice-cold MeOH/MeCN (1:1) and centrifuged for 5 min at 10,000 g. The supernatant was transferred to HPLC vials and stored in the freezer until analysis by HPLC/UPLC. The metabolic stability was calculated based on a 0 min sample. All compounds were analysed in triplicates.

[6] = test system: SUCNR1; test: Active/inactive grouping by EC50 threshold (ALiBERO training set, Table S1); format: cell-based; details: active (1) / inactive (0), EC50 threshold of 10 µM
Text: In brief, starting from the homology model supported by mutagenesis data[4], ALiBERO introduced receptor flexibility via Normal Mode Analysis and Monte Carlo sampling, to generate a small subset of receptor models (pockets). […] For a list of all compounds used in the optimisation protocol, see Table S1. Receptor structures were then chosen based on their ability to discriminate actives from inactives in a retrospective virtual screening using the docking protocol and scoring function in ICM (Molsoft L.L.C., San Diego, CA, USA)[20], as measured by the normalised square root area under the curve (NSQ_AUC). […] The ALiBERO-optimised receptor ensemble was subsequently validated in a virtual ligand screening using an external test set with a higher active:decoy ratio (~1:50).
ALiBERO is an iterative sampling-selection protocol for receptor optimisation that relies on the use of ligand information for selecting the best-performing receptor conformations. Homology models of the mouse SUCNR1 receptor were constructed according to Trauelsen et al.[4] and loaded into ICM (Molsoft L.L.C., San Diego, CA, USA). The structure was converted into an ICM object, thereby assigning protein atom types, optimising hydrogens and His, Pro, Asn, […] and Cys side-chain conformations. […] For a list of all compounds used in the optimisation protocol, see Table S1. ALiBERO was performed using the prepared receptor structure and ligand training set as input. Binding site residues were manually selected based on proximity to the position of MRS2500 in the superimposed structure of the P2Y1 receptor (PDB 4XNW). 100 elastic network normal mode analysis derived conformers were built in order to recreate backbone and side-chain flexibility (T = 300 K). Next, a flexible-ligand static-receptor small-scale virtual screening was performed on each of the receptor conformers, from which several pockets were selected for the following generation. The ligand and decoy molecules were docked into mSUCNR1, represented as pre-calculated potential grids and then sorted according to their ICM VLS scores. The maximum number of complementary pockets for each generation was set to 5 with a maximum of 10 generations. Receptor models were selected based on their combined screening performance, as determined by the normalised square root area under the curve, NSQ_AUC. After each round of virtual screening, an all-atom Monte Carlo side-chain refinement was performed to account for induced-by-ligand changes. NSQ_AUC values were calculated according to Katritch et al.[16].

[7] = target: T2, hSUCNR1 (Homo sapiens, UniProt Q9BXA5); test: IP3 turnover assay in hSUCNR1 transfected HEK-293 cells; format: cell-based; details: for hSUCNR1 efficacy, %: efficacy relative to succinate (100%), HEK cells (N = 3)
T2 construct: FLAG (own knowledge: pCMV-Tag 2B is an N-terminal FLAG vector); host or cells: HEK-293, transient transfection with Lipofectamine-2000
T2 sequence (Q9BXA5 1-334): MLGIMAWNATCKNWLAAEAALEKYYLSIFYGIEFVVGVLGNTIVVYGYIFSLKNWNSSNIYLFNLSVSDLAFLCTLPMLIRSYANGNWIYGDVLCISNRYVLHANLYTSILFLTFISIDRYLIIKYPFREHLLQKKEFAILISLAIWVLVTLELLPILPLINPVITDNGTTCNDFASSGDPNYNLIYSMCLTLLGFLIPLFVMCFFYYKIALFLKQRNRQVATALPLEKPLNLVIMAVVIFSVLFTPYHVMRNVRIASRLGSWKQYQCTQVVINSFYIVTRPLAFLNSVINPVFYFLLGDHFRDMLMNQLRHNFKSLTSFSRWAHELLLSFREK
Procedure: as §1, §2, §3

[8] = dose-response curves of induction of IP3 turnover in SUCNR1 transfected HEK cells (N = 3), read-out: hSUCNR1 pEC50 (converted)
[9] = dose-response curves of induction of IP3 turnover in SUCNR1 transfected HEK cells (N = 3), read-out: mSUCNR1 pEC50 (converted)
[10] = @10^−4M, IP3 turnover, relative to succinate (100%)

Row | EC50 [1] [nM] | EC50 [7] [nM] | SMILES | mSUCNR1 efficacy, % ([1]; IP3 turnover) [%] | Active [6] | hSUCNR1 efficacy, % ([7]; IP3 turnover) [%] | EC50 [7, 8] [nM] | EC50 [1, 9] [nM] | further results
1 | 51.3 | 145 | CC(C)Oc1ccc(-c2ccc(C(=O)N[C@@H](CC(=O)O)C(=O)O)o2)cc1 [Compound 22, (5-(4-Isopropoxyphenyl)furan-2-carbonyl)-L-aspartic acid] | 75.6 ± 1.7 | 1 (active (1)) | 69.6 ± 4.3 | – | – | –
2 | 107 | 537 | CC1(COc2ccc(-c3ccc(C(=O)N[C@@H](CC(=O)O)C(=O)O)o3)cc2)COC1 [Compound 23, (5-(4-((3-Methyloxetan-3-yl)methoxy)phenyl)furan-2-carbonyl)-L-aspartic acid] | 82.4 ± 1.9 | 1 (active (1)) | 76.5 ± 3.1 | – | – | reduction of potency ([1]; relative to the 4-methoxy compound 17, orthologue not stated): > 2 fold
3 | 46.8 | 794 | CS(=O)(=O)CCCOc1ccc(-c2ccc(C(=O)N[C@@H](CC(=O)O)C(=O)O)o2)cc1 [Compound 24, (5-(4-(3-(Methylsulfonyl)propoxy)phenyl)furan-2-carbonyl)-L-aspartic acid] | 74.6 ± 2.1 | 1 (active (1)) | 63.9 ± 2.4 | – | – | –
4 | – | – | O=C(O)C[C@H](NC(=O)c1cccc(-c2ccc(F)cc2)c1)C(=O)O [Compound 25, (4′-Fluoro-[1,1′-biphenyl]-3-carbonyl)-L-aspartic acid] | 58.0 ± 4.5 | 1 (active (1)) | 49.7 ± 3.9 | 1230 | 3980 | decrease in potency on the mouse orthologue ([1]; relative to 3): 10 fold
5 | – | – | O=C(O)C[C@H](NC(=O)c1ccc(-c2ccc(F)cc2)cc1)C(=O)O [Compound 26, (4′-Fluoro-[1,1′-biphenyl]-4-carbonyl)-L-aspartic acid] | – | 0 (inactive (0)) | – | – | – | hSUCNR1 % @10^−4M [7, 10]: 4% @10^−4M; mSUCNR1 % @10^−4M [1, 10]: 7% @10^−4M
6 | – | – | O=C(O)C[C@H](NC(=O)c1cccc(-c2ccc(F)cc2)n1)C(=O)O [Compound 27, (6-(4-Fluorophenyl)picolinoyl)-L-aspartic acid] | 89.3 ± 6.1 | 1 (active (1)) | 78.2 ± 8.0 | 933 | 794 | –
7 | – | – | COc1ccc(-c2cccc(C(=O)N[C@@H](CC(=O)O)C(=O)O)c2)cc1 [Compound 28, (4′-Methoxy-[1,1′-biphenyl]-3-carbonyl)-L-aspartic acid] | 64.0 ± 2.5 | 1 (active (1)) | 58.0 ± 2.7 | 162 | 1200 | –
8 | – | – | COc1ccc(-c2cccc(C(=O)N[C@@H](CC(=O)O)C(=O)O)n2)cc1 [Compound 29, (6-(4-Methoxyphenyl)picolinoyl)-L-aspartic acid] | 71.2 ± 3.2 | 1 (active (1)) | 52.6 ± 3.9 | 141 | 182 | –
9 | – | – | O=C(O)C[C@H](NC(=O)c1cccc(-c2ccc(OC(F)(F)F)cc2)c1)C(=O)O [Compound 30, (4′-(Trifluoromethoxy)-[1,1′-biphenyl]-3-carbonyl)-L-aspartic acid] | 45.3 ± 3.4 | 1 (active (1)) | 49.2 ± 2.7 | 58.9 | 1450 | –

Row | SMILES | EC50 [1] [nM] | EC50 [7] [nM] | mSUCNR1 efficacy, % ([1]; IP3 turnover) [%] | Active [6] | hSUCNR1 efficacy, % ([7]; IP3 turnover) [%] | EC50 [7, 8] [nM] | EC50 [1, 9] [nM] | further results
10 | CCOc1ccc(-c2ccc(C(=O)N[C@@H](CC(=O)O)C(=O)O)o2)cc1 [Compound 21, (5-(4-Ethoxyphenyl)furan-2-carbonyl)-L-aspartic acid] | 36.3 | – | 70.2 ± 2.0 | 1 (active (1)) | – | – | – | solubility kinetic at 24 h [2]: > 200 µM; chemical stability [3]: > 98%; stability in FaSSGF ([4]; simulated gastrointestinal fluid FaSSGF): stable; stability in FaSSIF ([4]; simulated gastrointestinal fluid FaSSIF): stable; stability in FeSSIF ([4]; simulated gastrointestinal fluid FeSSIF): stable; stability in mouse liver microsomes [5]: stable
